The record followed here is US10590143B2, “Herbicidally active (alkynyl-phenyl)-substituted cyclic dione compounds and derivatives thereof” (Syngenta Limited, priority 2013, dated 2020).

Where two headings read alike, the source gives them in different places.

Type in all cases: in vivo
For assay [1], the system named is Digitaria sanguinalis (DIGSA). Kind of assay: Biological Example 3 glasshouse assay for herbicidal activity, using various adjuvant systems. The settings on record: post-emergence, 8 g/ha, 14 or 15 DAA; adjuvant 0.5% v/v + 1.0% AMS + 12.5% IPA: TEHP (A3-A7), Adigor (A8, P1, P2, P4), Hexamoll DINCH (A1). The method, then: (§1) • Materials and Methods • Herbicide Application: Post-emergence foliar spray application, 200 L/ha, usually one or two replicates for the weeds (depending on application rate), and two replicates for soybean. • Climate: Standard warm conditions (tropical), in glasshouse. Specifically, the glasshouse bay conditions are 24° C./18° C. day/night; 16/8 hours light/dark; 65% humidity. • Plants: The herbicidal application takes place at the following growth stages for plants which include inter alia one or more of the following plants (usually the herbicidal application takes place on at least the following plants: DIGSA, ELEIN, SETFA, ZEAMX, GLXMA Nikko, and GLXMA TMG133, and often also either BRADC or BRAPP): • Brachiaria decumbens (BRADC)—growth stage (GS) 12 or 13 (or GS 12)—or, if BRADC is not used, then usually Brachiaria platyphylla (BRAPP)—growth stage 12 or 13 • Digitaria sanguinalis (DIGSA)—growth stage 12 or 13 • Eleusine indica (ELEIN)—growth stage 12 or 13 • Setaria faberi (SETFA)—growth stage 12 or 13 • Echinochloa crus-galli (ECHCG)—growth stage 12 or 13 • Sorghum halepense (annual) (SORHA)—growth stage 12 or 13 • Panicum dichotomiflorum (PANDI)—growth stage 12 or 13 • Zea mays (ZEAMX, maize/corn, e.g. can occur as volunteer corn) cultivar “Garland”—growth stage 12 or 13 • Glycine max (GLXMA, soybean) cultivar “Nikko”—growth stage: 1st trifoliate • Glycine max (GLXMA, soybean) cultivar “TMG133”—which is Roundup Ready™ glyphosate-tolerant soybean cultivar TMG133 (typically available from Monsanto in Brazil)—growth stage: 1st trifoliate. • Herbicidal Compositions Tested:
(§2) Each test compound is applied with one of the following adjuvant systems (all percentages are final concentrations in the aqueous spray mixture): • Adjuvant system 1: 0.5% v/v Adigor™*, 1.0% v/v AMS (ammonium sulphate) and 12.5% v/v IPA (isopropyl alcohol). • Adjuvant system 2: 0.5% v/v Hexamoll™ DINCH**, 1.0% v/v AMS (ammonium sulphate) and 12.5% v/v IPA (isopropyl alcohol). • Adjuvant system 3: 0.5% v/v tris-(2-ethylhexyl)phosphate (“TEHP”), 1.0% v/v AMS (ammonium sulphate) and 12.5% v/v IPA (isopropyl alcohol). ***Adigor™ (currently available in many countries from Syngenta) is an emulsifiable concentrate which consists of: • (i) ethoxylated alcohols, which typically includes ethoxylated higher alcohols (e.g. ethoxylates of alcohols wherein the alcohols are within the range of C12-C22); and • (ii) a mixture of heavy aromatic hydrocarbons, which typically includes (e.g. includes 50% or more by weight of the heavy aromatic hydrocarbons of) a mixture of naphthalenes each of which is substituted by one or more alkyls wherein the alkyl(s) in total have 1-4 carbon atoms per naphthalene molecule (e.g. Solvesso 200 ND™); and • (iii) about 47% w/w and/or about 45% w/v (with respect to the emulsifiable concentrate) of methylated rapeseed oil (rapeseed oil methyl ester) (e.g. Agnique ME 18 RD-F™), as an adjuvant. **Hexamoll™ DINCH™ is 1,2-cyclohexane dicarboxylic acid di-isononyl ester
(§3) Seeds of the weed (including volunteer) plants, typically including inter alia Digitaria sanguinalis (DIGSA), Eleusine indica (ELEIN), Setaria faberi (SETFA), Zea mays (ZEAMX, corn), and sometimes also [either Brachiaria decumbens (BRADC) or Brachiaria platyphylla (BRAPP)], are sown in seed trays (troughs) containing clay loam soil (pH 7.0, 2.2% organic matter, “Trough Mix A”); and soybean seed is sown in pots containing the same soil with 3 soybean seedlings per pot. The plants are sprayed with the test herbicide when they reach the growth stages mentioned above.
(§4) The test herbicidal solutions are prepared by mixing the appropriate aliquots of the test substance(s) and one of the adjuvant systems indicated above*** in deionised water to give the desired treatment concentration.
(§5) The herbicidal application is made as a foliar spray, using a tracksprayer. Following the herbicidal application, the plants are watered twice per day for the duration of the test. […]

The next assay relates to Eleusine indica (ELEIN). The assay is described as above. The settings on record: post-emergence, 8 g/ha, 14 or 15 DAA; adjuvant 0.5% v/v + 1.0% AMS + 12.5% IPA: TEHP (A3-A7), Adigor (A8, P1, P2, P4), Hexamoll DINCH (A1). The method, then: as §1, §2, §3, §4, §5
For assay [2], the system named is Setaria faberi (SETFA). Described as above. The settings on record: post-emergence, 8 g/ha, 14 or 15 DAA; adjuvant 0.5% v/v + 1.0% AMS + 12.5% IPA: TEHP (A3-A7), Adigor (A8, P1, P2, P4), Hexamoll DINCH (A1). The method, then:
as §1, §2, §3, §4, §5

For assay [3], the system named is Abutilon theophrasti (ABUTH). Nature of the assay: Biological Example 1 glasshouse assay for herbicidal activity. To be noted: 312 h, 13 days after application, read-out: percentage phytotoxicity ABUTH. The method, then: (§6) Seeds of a variety of test plant species were sown in standard soil** in pots. After cultivation for one day (pre-emergence) or after 8 days cultivation (post-emergence) under controlled conditions in a glasshouse (at 24/16° C., day/night; 14 hours light; 65% humidity), the plants were sprayed with an aqueous spray solution derived from the formulation of the technical active ingredient (the test herbicide) in acetone/water (50:50) solution containing 0.5% Tween 20 (polyoxyethylene sorbitan monolaurate, CAS Reg. No. 9005-64-5). The test plants were then grown on under controlled conditions in a glasshouse (at 24/16° C., day/night; 14 hours light; 65% humidity) and watered twice daily. 13 Days after application of the test herbicide, for pre- and post-emergence, the test was evaluated visually for percentage phytotoxicity to each plant (where 100%=total damage to plant; 0%=no damage to plant). Generally, each test herbicide is only tested on 1 plant per plant species for each application rate tested and for each application timing. **The “standard soil” in Biological Example 1 is usually a “sand” or “sandy loam” type of soil.
(§7) Dicotyledonous weeds: ABUTH=Abutilon theophrasti; AMARE=Amaranthus retroflexus. Grassy monocotyledonous weeds: SETFA=Setaria faberi; ALOMY=Alopecurus myosuroides; ECHCG=Echinochloa crus-galli; ZEAMX=Zea mays (corn, maize, e.g. volunteer corn).

The test system of assay [4] is Zea mays (ZEAMX, corn, maize, e.g. volunteer corn). Described as above. To be noted: Zea mays, 312 h, 13 days after application, read-out: percentage phytotoxicity ZEAMX. The method, then:
as §6, §7

Assay [5] deals with Alopecurus myosuroides (ALOMY). The assay is described as above. To be noted: 312 h, 13 days after application, read-out: percentage phytotoxicity ALOMY. The method, then: as §6, §7
In assay [6] the test system is Setaria faberi (SETFA). The description is as above. The settings on record: 312 h, 13 days after application, read-out: percentage phytotoxicity SETFA. The method, then: as §6, §7
Assay [7] has as its system Echinochloa crus-galli (ECHCG). The description is as above. The settings on record: Echinochloa crus-galli, 312 h, 13 days after application, read-out: percentage phytotoxicity ECHCG. The method, then: as §6, §7
The test system of assay [8] is Amaranthus retroflexus (AMARE). Described as above. The settings on record: Amaranthus retroflexus, 312 h, 13 days after application, read-out: percentage phytotoxicity AMARE. The method, then:
as §6, §7

For another assay, the system named is Zea mays (ZEAMX, corn). Kind of assay: Biological Example 3 glasshouse assay for herbicidal activity, using various adjuvant systems. The settings on record: post-emergence, 8 g/ha, 14 or 15 DAA; adjuvant 0.5% v/v + 1.0% AMS + 12.5% IPA: TEHP (A3-A7), Adigor (A8, P1, P2, P4), Hexamoll DINCH (A1). The method, then: as §1, §2, §3, §4, §5
[9] abbreviates: post-emergence, post-emergence, 30 g/ha.

For the compound `CC#Cc1cc(F)c(C2C(=O)C3CCC(C3)C2=O)c(OCCOC)c1` (centres unmarked) [Compound A5], in assay [1], the “percentage control of (percentage phytotoxicity on) Digitaria sanguinalis (DIGSA)” value is on record as 0%. The “percentage control of (percentage phytotoxicity on) Eleusine indica (ELEIN)” value (shortened to “percentage control … (ELEIN)”) in the assay on Eleusine indica (ELEIN) turned out to be 0%. The “percentage control of (percentage phytotoxicity on) Setaria faberi (SETFA)” value in the assay with Setaria faberi (SETFA) [2] came out at 25%. The pest or weed control at 250 g/ha in assay [3] (post-emergence, post-emergence) was determined as 30%; in assay [3] (pre-emergence, pre-emergence), 20%; in [4] (post-emergence, post-emergence), 100%; in assay [4] (pre-emergence, pre-emergence), 90%; in assay [5] (post-emergence), 70%; in [5] (pre-emergence), 40%. In addition, the pest or weed control at 250 g/ha stood at 80% with Setaria faberi (SETFA) [6] (post-emergence, post-emergence); 60% in the assay on Setaria faberi (SETFA) [6] (pre-emergence, pre-emergence); 100% in assay [7] (post-emergence, post-emergence); 80% in assay [7] (pre-emergence, pre-emergence); 30% in [8] (post-emergence, post-emergence); 50% in assay [8] (pre-emergence, pre-emergence).
For the compound `CC#Cc1cc(F)c(C2C(=O)C3CCC(C3)C2=O)c(OCC(F)(F)F)c1` (centres unmarked) [Compound A6], the “percentage control of (percentage phytotoxicity on) Zea mays (ZEAMX, corn)” value in the assay on Zea mays (ZEAMX, corn) turned out to be 0%. Moreover, the “percentage control of (percentage phytotoxicity on) Digitaria sanguinalis (DIGSA)” value in [1] amounted to 5%. Besides, the “percentage control … (ELEIN)” value with Eleusine indica (ELEIN) was determined as 5%. In addition, in the assay with Setaria faberi (SETFA) [2], the “percentage control of (percentage phytotoxicity on) Setaria faberi (SETFA)” value was 25%. For the same compound, the pest or weed control at 250 g/ha in assay [3] (post-emergence, post-emergence) came to 20%; in assay [3] (pre-emergence, pre-emergence), 30%; in [4] (post-emergence, post-emergence), 100%; in assay [4] (pre-emergence, pre-emergence) it was 80%; in [5] (post-emergence) it was 80%; in assay [5] (pre-emergence), 60%. In addition, the pest or weed control at 250 g/ha was determined as 80% in the assay on Setaria faberi (SETFA) [6] (post-emergence, post-emergence); 70% in the assay with Setaria faberi (SETFA) [6] (pre-emergence, pre-emergence); 100% in assay [7] (post-emergence, post-emergence); 80% in assay [7] (pre-emergence, pre-emergence); 50% in assay [8] (post-emergence, post-emergence); 60% in [8] (pre-emergence, pre-emergence).
For `CC#Cc1cc(Br)c(C2C(=O)C3CCC(C3)C2=O)c(OC)c1` (centres unmarked) [Compound A3], the “percentage control … (ELEIN)” value in the assay on Eleusine indica (ELEIN) came out at 55%. Also, the pest or weed control at 30 g/ha in [3] (setting [9]) stood at 0%; in [4] (setting [9]), 90%; in assay [5] (post-emergence, 30 g/ha) it was 70%; with Setaria faberi (SETFA) [6] (setting [9]), 80%; in [7] (setting [9]), 90%; in assay [8] (setting [9]), 0%. Besides, the pest or weed control at 250 g/ha in [3] (post-emergence, post-emergence) was 10%; in assay [3] (pre-emergence, pre-emergence), 10%; in assay [4] (post-emergence, post-emergence) it was 100%; in assay [4] (pre-emergence, pre-emergence) it was 100%; in assay [5] (post-emergence), 100%; in assay [5] (pre-emergence), 100%. The pest or weed control at 250 g/ha in the assay on Setaria faberi (SETFA) [6] (post-emergence, post-emergence) is 100%; in the assay on Setaria faberi (SETFA) [6] (pre-emergence, pre-emergence) it was 100%; in assay [7] (post-emergence, post-emergence), 100%; in assay [7] (pre-emergence, pre-emergence), 100%; in [8] (post-emergence, post-emergence), 20%; in assay [8] (pre-emergence, pre-emergence), 20%.
